This is an account of results in patent US20220017478A1, “2-BENZOYLAMINOBENZAMIDE DERIVATIVES AS BCL-3 INHIBITORS” (University College Cardiff Consultants Limited, priority 2013, published 2022).

For one data set, the system named is SKBR3 cells. Put plainly: Cell Titre Blue viability assay, SKBR3. Type of data set: cell-based, human. The conditions noted are these: Homo sapiens, SK-BR-3; SKBR3, 24 hrs, extrapolated with GraphPad; read-out: IC50 cell viability, extrapolated from the dose-response curve.
A short description of data set [1]: Cell Titre Blue viability assay, SKBR3. In kind it is cell-based, human. The following applies: human, SKBR3 cells; SKBR3, 1 mM, 24 hrs; read-out: cell viability compared to DMSO control (100%).
Method: (§4) The viability of cells at experimental endpoints for particular assays was determined using the Cell Titre Blue reagent (Promega, Southampton, UK). This reagent measures the cellular metabolic activity using resazurin as an indicator dye. Viable cells, therefore metabolically active, will reduce resazurin into highly fluorescent resofurin. The resulting fluorescence levels are measured and indicate cell viability.
(§5) Cells were plated at low confluency into 96 well plates in 100 μl of complete growth media in triplicates and were incubated at 37° C. in 5% CO2 for the desired test exposure period. For each 100 μl of media in 96 well plates, 20 μl Cell Titre Blue reagent was added followed by incubation for an hour at 37° C. in 5% CO2. Fluorescence was then measured by setting excitation/emission wavelengths to 560/590 nm on a Flurostar Optima plate reader (BMG tabtech, Bucks, UK).
(§6) To compare the toxicity in tumorigenic as well as in non-tumorigenic breast cancer cells, we selected MCF-10A as a non-tumorigenic human breast cancer cell line and MDA-MB-231 and SKBR3 as cell models of tumorigenic human breast cancer cell line.
(§7) Cell toxicity was evaluated using the Cell Titre Blue viability assay over a range of molarities for 24 hrs.
Data set [2] concerns NF-κB activity. Briefly: NF-κB luciferase reporter assay in MDA-MB-231 cells overexpressing Bcl-3. In kind it is cell-based, human. The conditions noted are these: for effect on NF-κB activity: 1 μM, 24 hrs, MDA-MB-231 Bcl-3 over-expressing cells, vs DMSO control / Compound 1a; for IC50: Homo sapiens. The method, then: (§1) For NF-κB luciferase assays, cells were seeded into clear bottom black 96-well plates (Corning Inc., Lowell, US) in antibiotic free culture media in appropriate density. After 24 hrs, cells were transfected with 10 ng of 3×κB luciferase plasmid and 10 ng of pcDNA3.1-Lacl plasmid per well. Empty pcDNA3.1 plasmid was also included to normalize the total weight of DNA transfected to 100 ng. For positive and negative controls respectively, 10 ng of pGL3control or pGL3basic were transfected in place of 3×KB luciferase plasmid. Transfection was carried out using Lipofectamine LTX reagents (Invitrogen, Paisley, UK).
After 48 hrs post-transfection with luciferase reporter plasmid, the media was aspirated and cells were lyzed using 50 μl/well of Glo-lysis buffer (Promega, Southampton, UK). The plate was left on a rocker for 20 min to facilitate complete cell lysis. Then, 20 μl of lysate from each well was removed and transferred into a new clear bottom black well plate for measuring LacZ activity as a transfection efficiency control and followed by addition of 20 ul/well of Beta-Glo substrate (Promega, Southampton, UK) and cultivation at room temperature for at least 20 min. Subsequently, 30 μl/well of Bright-Glo luciferase substrate (Promega, Southampton, UK) was added to the original plate and asses immediately for luminescence activity. The luminescence produced from either reaction was read using a Flurostar Optima plate reader (BMG tabtech, Bucks, UK).
The effect of Compound 1a on NF-κB activity was determined by NF-κB luciferase assay in MDA-MB-231 and HEK-293 cells overexpressing Bcl-3 and HEK-293 cells overexpressing p52. Cells were cultivated with Compound 1a over a range of molarities for 24 hrs before being transfected with NF-κB luciferase reporter plasmid for 48 hrs and analyzed for NF-κB activity.
The effect of selected analogues on NF-κB activity was determined by NF-KB luciferase assay in MDA-MB-231 cells. MDA-MB-231 Bcl-3 over-expressing cells were cultivated with compounds from series 1-3 at 1 μM concentration for 24 hrs before being transfected with NF-κB luciferase reporter plasmid for 48 hrs together with controls and analyzed for NF-κB activity.
Based on the results for the series of analogues, we have established dose response curve for selected analogues from series 1 (If), from series 2 (2a and 2c) and from series 3 (3a) over a range of molarities. MDA-MB-231 Bcl-3 WT cells were cultivated with selected compounds from series 1-3 over a range of molarities for 24 hrs before being transfected with NF-κB luciferase reporter plasmid for 48 hrs together with controls and analyzed for NF-κB activity (FIG. 7).
For orientation: In a reporter assay the amount or activity of a reporter protein is the signal.

In the next data set the test system is MDA-MB-231 cells. Briefly: Cell Titre Blue viability assay, MDA-MB-231. The following applies: Homo sapiens, MDA-MB-231, 24 h, read-out: IC50 cell viability, extrapolated from the dose-response curve.
Data set [3] concerns MDA-MB-231 cells overexpressing Bcl-3. Put plainly: Boyden chamber cell motility assay. Type of data set: cell-based, human. The following applies: for IC50: Homo sapiens. The method, then: The migratory or invasive capacity of human mammary cancer cell lines was assessed by the Boyden chamber assay. Cells were seeded in low serum media in a chamber with porous membrane (transparent polyethylene terephthalate (PET) membranes with 8 μm pores) as a solid support for motility assays or with a porous membrane coated with Matrigel Basement Membrane Matrix (BD BioCoat Growth factor reduced invasion chambers) for invasion assay. The cell insert was placed into a well with complete growth media, therefore cells are stimulated by a serum gradient to migrate or invade across the membrane through pores.
Total of 750 μl of complete growth media containing 10% of serum was added to appropriate wells of a 24 well cell culture insert companion plate (BD Biosciences, Oxford, UK). A cell culture insert (BD Biosciences, Oxford, UK) was then carefully placed into each well of the insert companion plate using tweezers. Cells were detached from tissue culture plates using 0.25% w/v Trypsin/EDTA (Invitrogen) and centrifuged at 13000 rpm for 5 min. Cells were washed twice in serum free media by resuspension and centrifugation. The appropriate number of cells (2×10^5 cells/ml for MDA-MB-231 cells) was resuspended in normal growth media containing only 0.10% serum. 350 μl of the cell suspension was added to the appropriate upper chambers of the cell culture inserts and plates were incubated for 24 hrs at 37° C. and 5% CO2.
After incubation, cells on membranes were fixed by replacing the media in the top and bottom sections of the chamber with 70% ice-cold ethanol (Fisher Scientific). Plates were incubated at −20° C. for at least an hour. After fixation, inserts were immersed in a tap water using tweezers to ensure all ethanol was removed. A moistened cotton wool bud was then used to mechanically remove all cells fixed on the upper side of the membranes. Cells were stained by individually immersing the inserts into filtered Harris' Haematoxylin (Sigma, Dorset, UK) for 1 min. Following this, inserts were washed in a beaker of tap water to remove the dye and immersed in 0.5% filtered Eosin (Sigma, Dorset, UK) for 2 min. Stained inserts were then washed again in a tap water.
Glycerol Gelatin (Sigma, Dorset, UK) was heated in a beaker of boiling water and once liquefied, a drop was placed onto an appropriately labelled microscope slide (R. A. Lamb, Loughborough, UK). Membranes were cut out of the insert and transferred onto the corresponding slide with tweezers. Glycerol Gelatin was added to the top of the membranes and a cover slip was placed on the slide under firm pressure. Mounted slides were left to air dry before being analyzed.
We therefore generated a dose response curve to determine an IC50 in this assay. MDA-MB-231 cells overexpressing Bcl-3 were cultivated with Compound 1a and DMSO control over a range of molarities for 24 hrs before being seeded onto Boyden migration chambers. The constant number of live cells present during this assay across samples was monitored by cell count.
Therefore we wanted to establish whether designed analogues have similar or improved ability to suppress cell migration. MDA-MB-231 Bcl-3 over-expressing cells were cultivated with selected analogues (1f, 2a, 2c, 3a) and DMSO control over a range of molarities for 24 hrs before being seeded onto the Boyden motility chambers. Migrated cells were visualized and counted after 24 hrs. The dose response curves were generated using GraphPad software (FIG. 9). The constant number of live cells present during this assay across samples was monitored by cell count.

Data set [4] concerns NF-κB activity. Put plainly: NF-κB luciferase reporter assay in HEK-293 p52 overexpressing cells. In kind it is cell-based. The conditions noted are these: Homo sapiens, HEK293. As for the experimental part:
as §1
(§2) After 48 hrs post-transfection with luciferase reporter plasmid, the media was aspirated and cells were lyzed using 50 μl/well of Glo-lysis buffer (Promega, Southampton, UK). The plate was left on a rocker for 20 min to facilitate complete cell lysis. […] Subsequently, 30 μl/well of Bright-Glo luciferase substrate (Promega, Southampton, UK) was added to the original plate and asses immediately for luminescence activity. The luminescence produced from either reaction was read using a Flurostar Optima plate reader (BMG tabtech, Bucks, UK).
(§3) The effect of Compound 1a on NF-κB activity was determined by NF-κB luciferase assay in MDA-MB-231 and HEK-293 cells overexpressing Bcl-3 and HEK-293 cells overexpressing p52. […]

Data set [5] concerns NF-κB activity. Put plainly: NF-κB luciferase reporter assay in HEK-293 cells overexpressing Bcl-3. Type of data set: cell-based. The conditions noted are these: Homo sapiens, HEK293. As for the experimental part:
as §1, §2, §3

Setting [6] is: MDA-MB-231 overexpressing Bcl-3, 24 hrs then reporter 48 hrs, read-out: IC50 NF-κB activity.
[7] abbreviates: Table 3, MDA-MB-231, read-out: NF-κB assay (μM) IC50.
Setting [8] is: MDA-MB-231, Table 3, read-out: Cell motility assay (μM) IC50.
[9] abbreviates: MDA-MB-231 overexpressing Bcl-3, 24 hrs pre-treatment, 24 hrs migration, read-out: IC50 cell motility (Boyden chamber).
Setting [10] is: MDA-MB-231 Bcl-3 WT, 24 hrs then reporter 48 hrs, read-out: IC50 NF-κB activity.

In general, IC50 refers to the concentration at which inhibition is half-maximal. For orientation: viability means a read-out of living cells in per cent, often relative to untreated cells.

“Also recorded” adds a separate entry of the source. Like-named read-outs stand apart in the source and are kept apart here.

Method for SKBR3 cells: as §4, §5, §6, §7

Turning to `O=C(Nc1ccccc1C(=O)NCCN1CCOCC1)c1ccccc1F` [Compound 1a, 2-[(2-fluorobenzoyl)amino]-N-(2-morpholin-4-ylethyl)benzamide], the IC50 in the data set with SKBR3 cells was 1370 µM; in the data set with NF-κB activity [2] (setting [6]), 0.0494 µM; in the data set on NF-κB activity [2] (setting [7]), 0.0454 µM; in the data set on MDA-MB-231 cells, 2700 µM; in data set [3] (setting [8]), 0.31 µM; in data set [3] (setting [9]), 0.31 µM. The IC50 was determined as 0.211 µM with NF-κB activity [4] and 0.16 µM in the data set on NF-κB activity [5]. The viability at 24 h, 1 mM in data set [1] came out at 57%. Moreover, the “effect on NF-κB activity” value with NF-κB activity [2] is recorded as “significant decrease; also recorded: most potent suppression of NF-κB activity”. Also, the migration ability result in data set [3] (MDA-MB-231 cells, 10 μM) was “significantly suppressed migration ability”.
With `COc1ccc(C(=O)Nc2ccccc2C(=O)NCCN2CCOCC2)cc1` [Compound 1f, 2-[(4-methoxybenzoyl)amino]-N-(2-morpholin-4-ylethyl)benzamide], the “effect on NF-κB activity” value with NF-κB activity [2] is “significant decrease”. Besides, the IC50 in the data set on NF-κB activity [2] (setting [6]) came to 0.00697 µM; with NF-κB activity [2] (setting [7]) it was 0.00697 µM; in data set [3] (setting [8]) it was 0.0289 µM; in data set [3] (setting [9]) it was 0.0289 µM. For the same molecule, the cell migration result in data set [3] (10 nM concentration) is “below 50%”.
Regarding `O=C(Nc1ccccc1C(=O)NCCCN1CCOCC1)c1ccccc1F` [Compound 2a], the “effect on NF-κB activity” value in the data set with NF-κB activity [2] is “significantly decreased NF-κB activity; also recorded: comparable activity with Compound 1a”. In addition, the IC50 with NF-κB activity [2] (setting [10]) was 2.5 µM; in the data set on NF-κB activity [2] (setting [7]) it was 2.5 µM; in data set [3] (setting [8]), 1.33 µM; in data set [3] (MDA-MB-231 overexpressing Bcl-3, read-out: IC50 cell motility (Boyden chamber)) it was 1.33 µM.
In the case of `COc1cccc(C(=O)NCCN2CCOCC2)c1NC(=O)c1ccccc1F` [Compound 3a, 2-[(2-fluorobenzoyl)amino]-3-methoxy-N-(2-morpholin-4-ylethyl) benzamide], in the data set on NF-κB activity [2], the “effect on NF-κB activity” value is “comparable effect on NF-κB activity with Compound 1a”. Further, the IC50 came out at 1.07 µM with NF-κB activity [2] (setting [10]), 1.07 µM in the data set with NF-κB activity [2] (setting [7]), 0.9 µM in data set [3] (setting [8]) and 0.9 µM in data set [3] (setting [9]).
